Measured values: patent US7419980B2, “Fused-aryl and heteroaryl derivatives and methods of their use” (Wyeth, priority 2003, dated 2008)
Structures can show the parent of a compound that is named as a salt.

Each compound was assayed against T1, human hNET (Homo sapiens, UniProt P23975) (assay: Norepinephrine (NE) uptake assay in MDCK-Net6 cells). Settings: 1 μM test compound; [3H]NE uptake, MDCK-Net6 cells; read-out: % Inhibition @ 1 μM (hNET).
T1 construct: expressed in transfected cells; host or cells: MDCK-Net6 (MDCK cells stably transfected with hNET)
T1 sequence (P23975 whole entry): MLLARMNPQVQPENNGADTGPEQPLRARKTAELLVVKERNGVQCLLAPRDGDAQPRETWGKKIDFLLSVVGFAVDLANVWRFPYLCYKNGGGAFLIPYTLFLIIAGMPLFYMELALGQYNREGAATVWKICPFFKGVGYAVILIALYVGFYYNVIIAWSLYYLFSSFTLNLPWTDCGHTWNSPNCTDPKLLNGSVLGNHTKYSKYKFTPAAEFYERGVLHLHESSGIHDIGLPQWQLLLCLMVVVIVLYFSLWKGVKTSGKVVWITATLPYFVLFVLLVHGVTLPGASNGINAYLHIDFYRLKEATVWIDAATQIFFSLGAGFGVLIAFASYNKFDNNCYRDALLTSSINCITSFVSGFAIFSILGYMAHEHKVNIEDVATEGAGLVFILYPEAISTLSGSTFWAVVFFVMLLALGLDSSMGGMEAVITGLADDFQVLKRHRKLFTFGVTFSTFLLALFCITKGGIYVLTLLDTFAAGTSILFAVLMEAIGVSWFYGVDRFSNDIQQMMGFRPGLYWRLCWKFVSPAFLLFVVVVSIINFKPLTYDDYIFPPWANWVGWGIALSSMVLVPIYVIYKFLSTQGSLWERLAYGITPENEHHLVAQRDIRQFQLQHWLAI
Type: cell-based
Procedure: MDCK-Net6 cells, stably transfected with human hNET (Pacholczyk, T., R. D. Blakely, and S. G. Amara, Nature, 1991, 350(6316): p. 350-4) were cultured in growth medium containing high glucose DMEM (Gibco, Cat. No. 11995), 10% FBS (dialyzed, heat-inactivated, US Bio-Technologies, Lot FBD1129HI) and 500 μg/ml G418 (Gibco, Cat. No. 10131). Cells were plated at 300,000/T75 flask and cells were split twice weekly. The JAR cell line (human placental choriocarcinoma) was purchased from ATCC (Cat. No. HTB-144). The cells were cultured in growth medium containing RPMI 1640 (Gibco, Cat. No. 72400), 10% FBS (Irvine, Cat. No. 3000), 1% sodium pyruvate (Gibco, Cat. No. 1136) and 0.25% glucose. Cells were plated at 250,000 cells/T75 flask and split twice weekly. For all assays, cells were plated in Wallac 96-well sterile plates (PerkinElmer, Cat. No. 3983498).
On day 1, cells were plated at 3,000 cells/well in growth medium and maintained in a cell incubator (37° C., 5% CO2). On day 2, growth medium was replaced with 200 μl of assay buffer (25 mM HEPES; 120 mM NaCl; 5 mM KCl; 2.5 mM CaCl2; 1.2 mM MgSO4; 2 mg/ml glucose (pH 7.4, 37° C.)) containing 0.2 mg/ml ascorbic acid and 10 μM pargyline. Plates containing cells with 200 μl of assay buffer were equilibrated for 10 minutes at 37° C. prior to addition of compounds. A stock solution of desipramine was prepared in DMSO (10 mM) and delivered to triplicate wells containing cells for a final tert concentration of 1 μM. Data from these wells were used to define non-specific NE uptake (minimum NE uptake). Test compounds were prepared in DMSO (10 mM) and diluted in assay buffer according to tert range (1 to 10,000 nM). Twenty-five microliters of assay buffer (maximum NE uptake) or tert compound were added directly to triplicate wells containing cells in 200 μl of assay buffer. The cells in assay buffer with tert compounds were incubated for 20 minutes at 37° C. To initiate the NE uptake, [^3H]NE diluted in assay buffer (120 nM final assay concentration) was delivered in 25 μl aliquots to each well and the plates were incubated for 5 minutes (37° C.). The reaction was terminated by decanting the supernatant from the plate. The plates containing cells were washed twice with 200 μl assay buffer (37° C.) to remove free radioligand. The plates were then inverted, left to dry for 2 minutes, then reinverted and air-dried for an additional 10 minutes. The cells were lysed in 25 μl of 0.25 N NaOH solution (4° C.), placed on a shake table and vigorously shaken for 5 minutes. After cell lysis, 75 μl of scintillation cocktail was added to each well and the plates were sealed with film tape. The plates were returned to the shake table and vigorously shaken for a minimum of 10 minutes to ensure adequate partitioning of organic and aqueous solutions. The plates were counted in a Wallac Microbeta counter (PerkinElmer) to collect the raw cpm data.
For each experiment, a data stream of cpm values collected from the Wallac Microbeta counter was downloaded to a Microsoft Excel statistical application program. Calculations of EC50 values were made using the transformed-both-sides logistic dose response program written by Wyeth Biometrics Department. The statistical program uses mean cpm values from wells representing maximum binding or uptake (assay buffer) and mean cpm values from wells representing minimum binding or uptake ((1 μM desipramine (hNET) or 1 μM paroxetine (hSERT)). Estimation of the EC50 value was completed on a log scale and the line was fit between the maximum and minimum binding or uptake values. All graphic data representation was generated by normalizing each data point to a mean percent based on the maximum and minimum binding or uptake values. The EC50 values reported from multiple experiments were calculated by pooling the raw data from each experiment and analyzing the pooled data as one experiment.

SMILES | inhibition at 1 µM [%]
OC1(C(CN2CCNCC2)c2cc3ccccc3s2)CCCCC1 (centres unmarked) [Example 261, 1-[1-(1-benzothien-2-yl)-2-piperazin-1-ylethyl]cyclohexanoldihydrochloride] | 60
OC1(C(CN2CCNCC2)c2cnc3ccccc3c2)CCCCC1 (centres unmarked) [Example 262, 1-(2-piperazin-1-yl-1-quinolin-3-ylethyl)cyclohexanol Dihydrochloride] | 19
OC1(C(CN2CCNCC2)c2cccc3ccccc23)CCCCCCC1 (centres unmarked) [Example 269, 1-[1-(1-naphthyl)-2-piperazin-1-ylethyl]cyclooctanol Dihydrochloride] | 41
CN1CCN(CC(c2cccc3ccccc23)C2(O)CCCCCCC2)CC1 (centres unmarked) [Example 270, 1-[2-(4-methylpiperazin-1-yl-1-(1-naphthyl)ethyl]cyclooctanol Dihydrochloride] | 13
OC1(C(CN2CCNCC2)c2cccc3ccccc23)CCCCCC1 (centres unmarked) [Example 271, 1-[1-(1-naphthyl)-2-piperazin-1-ylethyl]cycloheptanol Dihydrochloride] | 27

The next lines start with the values.

inhibition at 1 µM [%] | SMILES
44 | CN1CCN(CC(c2cccc3ccccc23)C2(O)CCCCCC2)CC1 (centres unmarked) [Example 272, 1-[2-(4-methylpiperazin-1-yl)-1-(1-naphthyl)ethyl]cycloheptanol Dihydrochloride]
16 | COc1ccc2scc(C(CN3CCNCC3)C3(O)CCCCC3)c2c1 (centres unmarked) [Example 279, 1-[1-(5-methoxy-1-benzothien-3-yl)-2-piperazin-1-ylethyl]cyclohexanol Dihydrochloride]
91 | OC1(C(CN2CCNCC2)c2cc(Br)cs2)CCCCC1 (centres unmarked) [Example 281, 1-[1-(4-bromothien-2-yl)-2-piperazin-1-ylethyl]cyclohexanol Dihydrochloride]
5.1 | CCC1CCC(O)(C(CN2CCN(C)CC2)c2cccc3ccccc23)CC1 (centres unmarked) [Example 328, 4-ethyl-1-[2-(4-methylpiperazin-1-yl)-1-(1-naphthyl)ethyl]cyclohexanol Dihydrochloride]
16 | CC1CCC(O)(C(CN2CCN(C)CC2)c2cccc3ccccc23)CC1 (centres unmarked) [Example 333, 4-methyl-1-[2-(4-methylpiperazin-1-yl)-1-(1-naphthyl)ethyl]cyclohexanol Dihydrochloride]
4.8 | OC1(C(CN2CCNCC2)c2cccnc2)CCCCC1 (centres unmarked) [Example 337, 1-(2-piperazin-1-yl-1-pyridin-3-ylethyl)cyclohexanol Trihydrochloride]
